From patent publication US20080004271A1, “Inhibitors of TNFalpha, PDE4 and B-RAF, compositions thereof and methods of use therewith” (priority 2006, published 2008)

Experiments:
[1] = molecular target: T1, V600E mutant B-RAF (Homo sapiens, UniProt P15056, V600E); test: V600E Mutant B-RAF 33P Assay; format: biochemical
T1 construct: purchased Upstate
Method: Substrate (HIS-MEK1 K97M) is prepared by Celgene Corp. as described above.
Test compound is diluted in 100% DMSO (600 μM). […] Substrate mixture is prepared as 7.5 μM HIS-MEK1 K97M in assay buffer. ATP mixture is prepared as 300 μM ATP, 75 mM MgCl2, 0.05 μCi/μl ^33P ATP in assay buffer.
In a 96 well assay plate (Falcon Polylpropylene well U-bottom), the following are added to each well: 2.5 μl of test compound solution (serial dilutions), 20 μl of substrate mixture and 17.5 μl of enzyme mixture. The plate is incubated for at least 15 minutes. 10 μl of ATP mixture is added and the plate is incubated at room temperature for about 60 minutes. 80 μl of 12.5% TCA is added to each well, and the plate is incubated for at least 20 minutes. The contents of the plate is transferred to a glass fiber filter plate (Millipore) using a Packard Harvester (washing 10× with 1×PBS). 50 μl of Scintillation-20 fluid is added to each well. The plate is read using a Packard TopCount.

[2] = tested on: A375 cells; test: Alamar Blue Viability Assay; format: cell-based; settings: 3 days
Method: A375 cells (ATCC # CRL-1619; Passage 4˜15; doubling time is roughly 18 hours) are used. Culture medium is DMEM (high glucose, with L-glutamine)+10% FBS+Pen/Strep. Cells are passed every three days at 1:20.
200 μl of medium only is added into all wells along the edges of a 96-well flat bottom plate and 180 μl of cell suspension (containing 1,000 cells) per well is added into the plate with a Low Evaporation Lid (Costar Cat # 3595). The cells are cultured overnight. Compounds and controls are diluted according to standard compound dilution protocol described below. From 30 mM stock solution, 10 mM, 3 mM, 1 mM, and 0.3 mM solutions in 100% DMSO are prepared using the following serial dilution protocol:
The 30, 10, 3, 1 and 0.3 mM solutions are diluted 1:50 (DMSO:medium) by adding 4 μl of each to 196 μl of culture medium. This yields 600 μM, 200 μM, 60 μM, 20 μM, and 6 μM secondary stock solutions. 4 μl of DMSO are added to 196 μl medium for the DMSO control as well. 20 μl of compound dilutions, including the DMSO control locations (Row G, Columns 2-10 are DMSO control wells), are added in triplicate to the cells in the 96-well plate using a repeat pipettor (see plate layout below). This yields final concentrations of 60 μM, 20 μM, 6 μM, 2 μM, and 0.6 μM containing 0.2% DMSO in each well. The plate is gently tapped to evenly distribute compound within the well. The plate is incubated at 5% CO2 at 37° C. for 3 days.
20 μl of Alamar Blue (Biosource #DAL-1100) is added to each well. The plate is incubated in 5% CO2 incubator for 4 hours. Fluorescence is measured with excitation wavelength at 530 nm and emission wavelength at 590 nm using a Victor 2 multilabel plate reader (Perkin Elmer). Data is saved with plate format as a Text file and entered into ActivityBase (Cell-based SAR; Prolif-Alamar; MTT 5 plates unfixed fit) to calculate the percent of DMSO values for each compound set of triplicate wells and IC50 curves are plotted.

T1 sequence (P15056 whole entry V600E): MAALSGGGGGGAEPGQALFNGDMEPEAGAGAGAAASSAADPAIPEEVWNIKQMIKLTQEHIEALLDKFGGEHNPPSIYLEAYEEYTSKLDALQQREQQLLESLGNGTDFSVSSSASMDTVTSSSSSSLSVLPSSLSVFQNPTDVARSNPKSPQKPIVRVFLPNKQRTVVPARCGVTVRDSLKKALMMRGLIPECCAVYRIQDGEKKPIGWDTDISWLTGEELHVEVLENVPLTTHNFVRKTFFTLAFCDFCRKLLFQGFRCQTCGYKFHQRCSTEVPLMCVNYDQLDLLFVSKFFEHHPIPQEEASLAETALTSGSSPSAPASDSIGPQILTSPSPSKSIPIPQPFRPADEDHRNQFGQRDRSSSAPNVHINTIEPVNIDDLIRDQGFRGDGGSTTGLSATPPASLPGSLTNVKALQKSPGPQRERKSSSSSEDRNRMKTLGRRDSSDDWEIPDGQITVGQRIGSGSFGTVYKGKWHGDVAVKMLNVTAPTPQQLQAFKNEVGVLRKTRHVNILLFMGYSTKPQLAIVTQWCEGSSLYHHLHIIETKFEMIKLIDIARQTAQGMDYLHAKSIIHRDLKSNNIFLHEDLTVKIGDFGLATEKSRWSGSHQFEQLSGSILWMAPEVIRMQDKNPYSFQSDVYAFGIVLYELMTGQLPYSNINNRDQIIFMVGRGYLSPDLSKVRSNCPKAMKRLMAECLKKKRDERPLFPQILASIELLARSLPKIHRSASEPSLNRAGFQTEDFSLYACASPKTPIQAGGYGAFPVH

| SMILES | IC50 [1] | IC50 [2] | IC50 ([2]; Homo sapiens, A-375, 72 h) |
| --- | --- | --- | --- |
| NC(=O)c1nc(-c2ccc(Cl)c(Cl)c2)c2c(N)c(C(N)=O)sc2n1 [Example 193] | 0.1 to 10 µM | 20 to 30 µM |  |
| C[C@@H](CO)Oc1nc(-c2ccc(Cl)c(Cl)c2)c2c(N)c(C(N)=O)sc2n1 [Example 211] |  |  | 10 to 20 µM |
| NC(=O)c1nc(-c2ccc(Cl)c(Cl)c2)c2c(N)c(C(N)=O)sc2n1 [Example 268] | 0.1 to 10 µM |  | 30 to 60 µM |
| NC(=O)c1sc2ncnc(-c3cc4c(c(OCc5ccccc5)c3)CCO4)c2c1N [Example 266] | > 60 µM |  | 10 to 20 µM |
| NC(=O)c1sc2nc(NC3CNC3)nc(-c3ccc(Cl)c(Cl)c3)c2c1N [Example 227] | 0.1 to 10 µM |  | 0.1 to 10 µM |
| COc1cccc(-c2nc(N)nc3sc(C(N)=O)c(N)c23)c1 [Example 184] | 0.1 to 10 µM |  | 20 to 30 µM |
| CC(O)CCNc1nc(-c2ccc(Cl)c(Cl)c2)c2c(N)c(C(N)=O)sc2n1 (centres unmarked) [Example 221] | 0.1 to 10 µM |  | 10 to 20 µM |
| COc1cncc(-c2nc(N)nc3sc(C(N)=O)c(N)c23)c1 [Example 277] |  |  | 0.1 to 10 µM |
| NC(=O)c1sc2ncnc(-c3cc(O)c4c(c3)OCC4)c2c1N [Example 267] | 0.1 to 10 µM |  | 10 to 20 µM |
| NC(=O)c1sc2nc(NC3CC3)nc(-c3ccc(C(F)(F)F)cc3)c2c1N [Example 235] | 0.1 to 10 µM |  | 20 to 30 µM |
| NC(=O)c1sc2nc(NC3CC3)nc(-c3cccc([N+](=O)[O-])c3)c2c1N [Example 244] | 0.1 to 10 µM |  | 30 to 60 µM |
| NC(=O)c1sc2nc(CC(=O)O)nc(-c3ccc(Cl)c(Cl)c3)c2c1N [Example 255] | 0.1 to 10 µM |  | > 60 µM |
| CCOc1nc(-c2cccc(C(F)F)c2)c2c(N)c(C(N)=O)sc2n1 [Example 285] | 0.1 to 10 µM |  | 10 to 20 µM |
| NC(=O)c1sc2ncnc(-c3cccc(Nc4nc5cc(C(F)(F)F)ccc5[nH]4)c3)c2c1N [Example 287] |  |  | 0.1 to 10 µM |
| COc1ccnc(-c2nc(NC(C)(C)CO)nc3sc(C(N)=O)c(N)c23)c1 [Example 284] | 30 to 60 µM |  | 10 to 20 µM |
| NC(=O)c1sc2nc(N[C@@H]3CCOC3)nc(-c3ccc(Cl)c(Cl)c3)c2c1N [Example 229] | 0.1 to 10 µM |  | 10 to 20 µM |
| NC(=O)c1sc2ncnc(-c3cccc(N)c3)c2c1N [Example 290] |  |  | 10 to 20 µM |
| NC(=O)c1sc2nc(NC3CC3)nc(-c3cccc(NC(=O)C(F)(F)F)c3)c2c1N [Example 246] | 10 to 20 µM |  | > 60 µM |
| CCCCNc1nc(-c2ccc(Cl)c(Cl)c2)c2c(N)c(C(N)=O)sc2n1 [Example 223] | 0.1 to 10 µM |  |  |
| CC(C)(O)CNc1nc(-c2ccc(Cl)c(Cl)c2)c2c(N)c(C(N)=O)sc2n1 [Example 215] | 0.1 to 10 µM |  | 10 to 20 µM |
| COc1ccc(NC(=O)Nc2cccc(-c3ncnc4sc(C(N)=O)c(N)c34)c2)cc1 [Example 283] |  |  | 10 to 20 µM |
| CCc1cncc(-c2nc(NC(C)(C)CO)nc3sc(C(N)=O)c(N)c23)c1 [Example 178] | 0.1 to 10 µM |  | 10 to 20 µM |
| CC(C)(CO)Nc1nc(-c2cccc(C(F)F)c2)c2c(N)c(C(N)=O)sc2n1 [Example 286] | 0.1 to 10 µM |  | 10 to 20 µM |
| CC(C)(CO)Nc1nc(-c2cncc(OCc3ccccc3)c2)c2c(N)c(C(N)=O)sc2n1 [Example 179] | 30 to 60 µM |  | 10 to 20 µM |
| CC(C)(CN1CCCC1)Nc1nc(-c2ccc(Cl)c(Cl)c2)c2c(N)c(C(N)=O)sc2n1 [Example 216] | 0.1 to 10 µM |  | 10 to 20 µM |

| SMILES | IC50 [1] | IC50 [2] | IC50 ([2]; Homo sapiens, A-375, 72 h) |
| --- | --- | --- | --- |
| NC(=O)c1sc2nc(NC3CC3)nc(-c3ccc(OCc4ccccc4)nc3)c2c1N [Example 168] | 0.1 to 10 µM |  | 20 to 30 µM |
| COc1cncc(-c2nc(N[C@@H](C)CO)nc3sc(C(N)=O)c(N)c23)c1 [Example 177] |  |  | 10 to 20 µM |
| NC(=O)c1sc2nc(NC3CC3)nc(-c3ccc(O)nc3)c2c1N [Example 170] | 30 to 60 µM |  | > 60 µM |
| NC(=O)c1sc2nc(NC3CC3)nc(-c3ccccc3OCc3ccccc3)c2c1N [Example 182] | 30 to 60 µM |  | 30 to 60 µM |
| NC(=O)c1sc2ncnc(-c3cccc(NC(=O)Nc4ccccn4)c3)c2c1N [Example 294] |  |  | 10 to 20 µM |
| NC(=O)c1sc2nc(NC3CC3)nc(-c3ccccc3F)c2c1N [Example 186] | 0.1 to 10 µM |  | 20 to 30 µM |
| CC(C)(C)Nc1nc(-c2ccc(Cl)c(Cl)c2)c2c(N)c(C(N)=O)sc2n1 [Example 209] | 0.1 to 10 µM |  | 10 to 20 µM |
| NC(=O)Cc1nc(-c2ccc(Cl)c(Cl)c2)c2c(N)c(C(N)=O)sc2n1 [Example 254] | 0.1 to 10 µM |  | > 60 µM |
| CC(C)[C@@H](CO)Nc1nc(-c2ccc(Cl)c(Cl)c2)c2c(N)c(C(N)=O)sc2n1 [Example 272] | 0.1 to 10 µM |  | 10 to 20 µM |
| CC(C)(CO)Nc1nc(-c2cncc(O)c2)c2c(N)c(C(N)=O)sc2n1 [Example 180] | 0.1 to 10 µM |  | 10 to 20 µM |
| NC(=O)c1sc2ncnc(-c3cccc([N+](=O)[O-])c3)c2c1N [Example 289] |  |  | 10 to 20 µM |
| NC(=O)c1sc2nc(NC3(CO)CCC3)nc(-c3ccc(Cl)c(Cl)c3)c2c1N [Example 281] | 0.1 to 10 µM |  | 10 to 20 µM |
| NC(=O)c1sc2nc(NC3CC3)nc(-c3c(F)cccc3F)c2c1N [Example 187] | 0.1 to 10 µM |  | 20 to 30 µM |
| NC(=O)c1sc2ncnc(-c3cccc(NC(=O)Nc4cccnc4)c3)c2c1N [Example 293] | 0.1 to 10 µM |  | 10 to 20 µM |
| NC(=O)c1sc2ncnc(-c3cccc(Nc4nc5cc(C(F)(F)F)ccc5o4)c3)c2c1N [Example 288] | 0.1 to 10 µM |  | 10 to 20 µM |
| NC(=O)c1sc2nc(NC3CC3)nc(-c3ccnc(O)c3)c2c1N [Example 237] | 10 to 20 µM |  | > 60 µM |
| CC(C)[C@H](CO)Nc1nc(-c2ccc(Cl)c(Cl)c2)c2c(N)c(C(N)=O)sc2n1 [Example 198] | 0.1 to 10 µM | 10 to 20 µM |  |
| NC(=O)c1sc2nc(NC3CC3)nc(-c3ccnc(Cl)c3)c2c1N [Example 236] | 0.1 to 10 µM |  | 30 to 60 µM |
| NC(=O)c1sc2nc(NC3CC3)nc(-c3cccc(N)c3)c2c1N [Example 245] |  |  | > 60 µM |
| NC(=O)c1sc2nc(NC3CC3)nc(Nc3ccccc3)c2c1N [Example 278] | 10 to 20 µM |  | 30 to 60 µM |
| C[C@H](O)[C@H](C)Oc1nc(-c2ccc(Cl)c(Cl)c2)c2c(N)c(C(N)=O)sc2n1 [Example 213] | 0.1 to 10 µM |  | > 60 µM |
| COc1cc(-c2nc(NC3CC3)nc3sc(C(N)=O)c(N)c23)ccc1C(F)(F)F [Example 233] | 0.1 to 10 µM |  | 10 to 20 µM |
| NC(=O)c1sc2nc(NC3CC3)nc(Nc3ccc(Cl)c(Cl)c3)c2c1N [Example 279] | 30 to 60 µM |  | 0.1 to 10 µM |
| COc1cc(-c2nc(NC(C)(C)CO)nc3sc(C(N)=O)c(N)c23)cc(Cl)c1Cl [Example 263] |  |  | 10 to 20 µM |
| NC(=O)c1sc2nc(NC3CC3)nc(-c3ccccc3O)c2c1N [Example 183] | 0.1 to 10 µM |  | 30 to 60 µM |
